In US20150232509A1, “SPIRO RING COMPOUNDS AS HEPATITIS C VIRUS (HCV) INHIBITORS” (SUNSHINE LAKE PHARMA CO., LTD., priority 2012, published 2015):

Assays:
[1] = test system: HCV GT1b replicon cells; assay: HCV Replicon assay, GT1b replicon cells (Luciferase / NEO qPCR); assay type: cell-based; details: Hepatitis C virus, 72 hours incubation, read-out: EC50 against HCV 1b genotype
Method: (§1) An HCV Replicon assay was utilized in the present invention, and was prepared, developed and validated as described in Science, 1999, 285 (5424), 110-3 and J. Virol., 2003, 77 (5), 3007-19.
(§2) HCV GT1a, GT1b and GT2a replicon cells were used to test the currently described compound series as well as wild-type cells HCV 1b and resistant cells Y93H, L31F, P32L and 1302V. […]
(§3) The GT1a cells and GT1b cells were seeded into 96-well plates (8,000 cells in 125 μL/well) respectively; each compound was diluted to desired concentration using 5-fold serial dilutions protocol, 10 doses in duplicate, and added to wells with POD™ 810 Plate Assembler. The final concentration of DMSO was 0.5%; the plates were incubated in a CO2 incubator for 72 hours; after that, 40 μL of Luciferase assay substrate (Promega Bright-Glo) was added to each well, and detected by a chemiluminescence detection system (Topcount Microplate Scintillation and Luminescence Counter) 5 minutes later; data analysis.
(§4) The GT1a cells and GT1b cells were seeded into 96-well plates (8,000 cells in 125 μL/well) respectively; each compound was diluted to desired concentration using 5-fold serial dilutions protocol, 10 doses in duplicate, and added to wells with POD™ 810 Plate Assembler., the final concentration of DMSO was 0.5%; the cells were incubated in a CO2 incubator for 72 hours; quantitative PCR. • Sample preparation: the supernatant was removed, 100 μL of FCW buffer solution was added to each well, washed carefully and discarded the solution; 50 μL of lysate FCP was added to each well, the cells was lysed as PCR template and PCR template was diluted with DEPC water as sample template. • Quantitative PCR: preparation of reaction mixture according to PCR system; the reaction mixture was dispensed into a 384-well PCR reaction plate (specially for quantitative); and a standard template which was diluted in proportion was distributed into the plate; and the sample template was distributed into the plate; then the 384-well plate was sealed with closure plate membrane; the […] PCR machine was operated by procedures; data analysis. 3. Data Processing: the EC50 Values of Compounds were Analyzed by GraphPad Prism Software.

[2] = test system: HCV GT1a replicon cells; assay: HCV Replicon assay, GT1a replicon cells (Luciferase / NEO qPCR); assay type: cell-based; details: Hepatitis C virus, 72 hours incubation, read-out: EC50 against HCV 1a genotype
Method: as §1, §2, §3, §4

| SMILES | EC50 [1] | EC50 [2] |
| --- | --- | --- |
| COC(=O)N[C@H](C(=O)N1CCC[C@H]1c1nc2ccc(-c3ccc(-c4ccc5nc([C@@H]6CCCN6C(=O)[C@@H](NC(=O)OC)C(C)C)[nH]c5c4)c4c3CCC43CCC3)cc2[nH]1)C(C)C [Example 40] | 0.017 nM | 0.043 nM |
| COC(=O)N[C@H](C(=O)N1CCS[C@H]1c1ncc(-c2ccc(-c3ccc(-c4cnc([C@@H]5SCCN5C(=O)[C@@H](NC(=O)OC)C(C)C)[nH]4)c4c3C3(CCCC3)CC4)cc2)[nH]1)C(C)C [Example 28] | 0.667 nM | 4.57 nM |
| COC(=O)N[C@H](C(=O)N1CCC[C@H]1c1nc(-c2ccc(-c3ccc(-c4c[nH]c([C@@H]5CCCN5C(=O)[C@@H](NC(=O)OC)C(C)C)n4)c4c3C3(CCCC3)CC4)cc2)c[nH]1)C(C)C [Example 2] | 0.009 nM | 0.325 nM |
| COC(=O)N[C@H](C(=O)N1CC(F)(F)C[C@H]1c1nc(-c2ccc(-c3ccc(-c4cnc([C@@H]5CC(F)(F)CN5C(=O)[C@@H](NC(=O)OC)C(C)C)[nH]4)c4c3C3(CCOCC3)CC4)cc2)c[nH]1)C(C)C [Example 42] | 0.109 nM | 6.89 nM |
| COC(=O)N[C@H](C(=O)N1CCC[C@H]1c1nc2cc(-c3ccc(-c4ccc5[nH]c([C@@H]6CCCN6C(=O)[C@@H](NC(=O)OC)C(C)C)nc5c4)c4c3CCC43CCCC3)ccc2[nH]1)C(C)C [Example 1] | 0.041 nM | 0.102 nM |
| COC(=O)N[C@H](C(=O)N1CC(C)=C[C@H]1c1ncc(-c2ccc(-c3ccc(-c4cnc([C@@H]5C=C(C)CN5C(=O)[C@@H](NC(=O)OC)C(C)C)[nH]4)c4c3C3(CCCC3)CC4)cc2)[nH]1)C(C)C [Example 35] | 0.086 nM | 0.518 nM |
| COC(=O)N[C@H](C(=O)N1CCC[C@H]1c1ncc(-c2ccc(-c3ccc(-c4ccc5nc([C@@H]6CCCN6C(=O)[C@@H](NC(=O)OC)C(C)C)[nH]c(=O)c5c4)c4c3C3(CCCC3)CC4)cc2)[nH]1)C(C)C [Example 38] | 0.009 nM | 0.066 nM |
| COC(=O)N[C@H](C(=O)N1C[C@@H](C)C[C@H]1c1nc(-c2ccc(-c3ccc(-c4ccc5nc([C@@H]6C[C@H](C)CN6C(=O)[C@@H](NC(=O)OC)C(C)C)[nH]c5c4)c4c3C3(CCCC3)CC4)cc2)c[nH]1)C(C)C [Example 16] | 0.005 nM | 0.008 nM |
| COC(=O)N[C@H](C(=O)N1C[C@@H](F)C[C@H]1c1ncc(-c2ccc(-c3ccc(-c4cnc([C@@H]5C[C@H](F)CN5C(=O)[C@@H](NC(=O)OC)C(C)C)[nH]4)c4c3C3(CCCC3)CC4)cc2)[nH]1)C(C)C [Example 17] | 0.072 nM | 0.475 nM |
| COC(=O)N[C@H](C(=O)N1CCC[C@H]1c1ncc(-c2ccc(-c3ccc(-c4cnc([C@@H]5CCCN5C(=O)[C@@H](NC(=O)OC)C5CCCCC5)[nH]4)c4c3C3(CCCC3)CC4)cc2)[nH]1)C1CCCCC1 [Example 15] | 0.029 nM | 0.886 nM |
| COC(=O)N[C@H](C(=O)N1CCC[C@H]1c1ncc(-c2ccc(-c3ccc(-c4ccc5nc([C@@H]6CCCN6C(=O)[C@@H](NC(=O)OC)C(C)C)[nH]c5c4)c4c3CCCC43CCC3)s2)[nH]1)C(C)C [Example 41] | 0.043 nM | 0.876 nM |
| CNC(=O)N[C@H](C(=O)N1C2CC2C[C@H]1c1nc2ccc(-c3ccc(-c4ccc(-c5cnc([C@@H]6CCCN6C(=O)[C@@H](NC(=O)OC)C(C)C)[nH]5)cc4)c4c3C3(CCCC3)CC4)cc2[nH]1)C(C)C (stereo partly shown) [Example 11] | 0.096 nM | 0.447 nM |
| COC(=O)N[C@H](C(=O)N1CCC[C@H]1c1ncc(-c2ccc(-c3ccc(-c4ccc5[nH]c([C@@H]6CCCN6C(=O)[C@@H](NC(=O)OC)C(C)C)nc5c4)c4c3CCC43CCCC3)cc2)[nH]1)C(C)C [Example 4] | 0.029 nM | 0.085 nM |
| COC(=O)N[C@H](C(=O)N1CCC[C@H]1c1nc(-c2ccc(-c3ccc(-c4ccc(-c5cnc([C@@H]6CCCN6C(=O)[C@@H](NC(=O)OC)C(C)C)[nH]5)cc4)c4c3CCC43CCCC3)cc2)c[nH]1)C(C)C [Example 6] | 0.208 nM | 1.37 nM |
| COC(=O)N[C@H](C(=O)N1CCC[C@H]1c1ncc(-c2ccc(-c3ccc(-c4cnc([C@@H]5CCCN5C(=O)[C@@H](NC(=O)OC)C(C)C)[nH]4)c4c3C3(CCCN3C)CC4)cc2)[nH]1)C(C)C (stereo partly shown) [Example 49] | 0.357 nM | 23.6 nM |
| COC(=O)N[C@H](C(=O)N1CCC[C@H]1c1ncc(-c2ccc(-c3ccc(-c4cnc([C@@H]5CCCN5C(=O)[C@@H](NC(=O)OC)C(C)C)[nH]4)c4c3CCC43CCCC3)cc2)[nH]1)C(C)C [Example 5] | 0.086 nM | 2.49 nM |
| COC(=O)N[C@H](C(=O)N1CCC[C@H]1c1ncc(-c2ccc(-c3ccc(-c4cnc([C@@H]5CC6(CN5C(=O)[C@@H](NC(=O)OC)C(C)C)OCCO6)[nH]4)c4c3C3(CCCC3)CC4)cc2)[nH]1)C(C)C [Example 31] | 0.048 nM | 4.68 nM |
| COC(=O)N[C@H](C(=O)N1C[C@@H](C)C[C@H]1c1ncc(-c2ccc(-c3ccc(-c4cnc([C@@H]5C[C@H](C)CN5C(=O)[C@@H](NC(=O)OC)C(C)C)[nH]4)c4c3C3(CCCC3)CC4)cc2)[nH]1)C(C)C [Example 14] | 0.011 nM | 0.785 nM |
| COC(=O)NC(C(=O)N1CCCC1c1nc(-c2ccc(-c3ccc(-c4c[nH]c(C5CCCN5C(=O)C(NC(=O)OC)C(C)C)n4)c4c3C3(CCCC3)CC4)cc2)c[nH]1)C(C)C (stereo not shown) [Example 54] | 0.044 nM | 3.57 nM |
| COC(=O)N[C@H](C(=O)N1CCC[C@H]1c1ncc(-c2ccc(-c3ccc(-c4cnc([C@@H]5CCCN5C(=O)[C@@H](NC(=O)OC)C(C)C)[nH]4)c4c3C3(CC4)CCN(C)C3)cc2)[nH]1)C(C)C (stereo partly shown) [Example 48] | 0.24 nM | 3.08 nM |
| COC(=O)N[C@H](C(=O)N1CCC[C@H]1c1ncc(-c2ccc(-c3ccc(-c4cnc([C@@H]5CCCN5C(=O)[C@@H](NC(=O)OC)C(C)C)[nH]4)c4c3C3(CC4)CCC(C)CC3)s2)[nH]1)C(C)C (stereo partly shown) [Example 44] | 0.937 nM | 13.7 nM |
| COC(=O)N[C@H](C(=O)N1CCC[C@H]1c1ncc(C#Cc2ccc(-c3ccc(-c4cnc([C@@H]5CCCN5C(=O)[C@@H](NC(=O)OC)C(C)C)[nH]4)cc3)c3c2CCC32CCCC2)[nH]1)C(C)C [Example 13] | 0.032 nM | 0.438 nM |
| COC(=O)N[C@H](C(=O)N1CCC[C@H]1c1ncc(-c2ccc(-c3ccc(-c4ccc5nc([C@@H]6CCCN6C(=O)[C@@H](NC(=O)OC)C(C)C)[nH]c5c4)c4c3CCC43CCCC3)c3ccccc23)[nH]1)C(C)C [Example 37] | 0.099 nM | 3.78 nM |
| COC(=O)N[C@H](C(=O)N1CCC[C@H]1c1ncc(-c2ccc(-c3ccc(-c4ccc5nc([C@@H]6CCCN6C(=O)[C@@H](NC(=O)OC)c6ccccc6)[nH]c5c4)c4c3C3(CCCC3)CC4)cc2)[nH]1)c1ccccc1 [Example 19] | 0.011 nM | 0.376 nM |
| COC(=O)N[C@H](C(=O)N1CCC[C@H]1c1ncc(-c2ccc(-c3ccc(-c4cnc([C@@H]5CCCN5C(=O)[C@@H](NC(=O)OC)C(C)C)[nH]4)c4c3C3(CCC4)CCN(C)C3)cc2)[nH]1)C(C)C (stereo partly shown) [Example 50] | 0.096 nM | 0.875 nM |
| COC(=O)N[C@H](C(=O)N1CCC[C@H]1c1ncc(-c2ccc(-c3ccc(-c4cnc([C@@H]5CCCN5C(=O)[C@@H](NC(=O)OC)c5ccccc5)[nH]4)c4c3C3(CC4)CCN(C)CC3)cc2)[nH]1)c1ccccc1 [Example 43] | 0.148 nM | 7.28 nM |
